Entries after “also recorded” stand apart in the source; their conditions may differ.
How the values were obtained:
[1] = system: acute myeloid leukemia, colon cancer, or lung cancer cell lines; assay: Proliferation of non-MM cancer cell lines, 6 days; assay type: cell-based, human
Method: (§1) Chemiluminescence was measured with a microplate reader. […] K562 cells were cultured in RPMI 10% FBS.
6 days. Relative ATP concentration was calculated based on chemiluminescence relative to the 0 nM value (control). Data are presented as
mean ± standard deviation (n = 3).
(§2) (1 picture or pasted object on this page, not shown here)

[2] = molecular target: T1, PRMT5/Methylosome protein (MEP)50 complex (Homo sapiens, UniProt O14744); assay: PRMT5 methyltransferase scintillation proximity assay; assay type: biochemical
T1 construct: 1–637 (PRMT5); made in house
T1 sequence (O14744 whole entry): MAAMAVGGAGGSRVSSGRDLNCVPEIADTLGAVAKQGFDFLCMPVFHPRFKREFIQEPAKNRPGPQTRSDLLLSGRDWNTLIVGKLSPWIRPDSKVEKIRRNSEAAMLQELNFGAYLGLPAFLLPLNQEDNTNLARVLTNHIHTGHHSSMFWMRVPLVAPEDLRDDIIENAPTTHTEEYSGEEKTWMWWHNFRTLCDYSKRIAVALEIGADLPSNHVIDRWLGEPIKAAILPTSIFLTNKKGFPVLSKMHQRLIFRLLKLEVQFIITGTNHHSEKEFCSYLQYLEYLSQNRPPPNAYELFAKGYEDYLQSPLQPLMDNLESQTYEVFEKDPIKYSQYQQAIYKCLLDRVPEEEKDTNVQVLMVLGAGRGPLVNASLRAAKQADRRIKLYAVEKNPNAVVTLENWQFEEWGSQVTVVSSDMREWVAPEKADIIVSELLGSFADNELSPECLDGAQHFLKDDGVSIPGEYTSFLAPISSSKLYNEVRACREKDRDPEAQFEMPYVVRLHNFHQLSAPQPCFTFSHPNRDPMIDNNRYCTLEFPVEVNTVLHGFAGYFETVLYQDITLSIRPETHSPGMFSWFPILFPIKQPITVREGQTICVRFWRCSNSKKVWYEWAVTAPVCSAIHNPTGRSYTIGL
T1 sequence (Q9BQA1 whole entry partner): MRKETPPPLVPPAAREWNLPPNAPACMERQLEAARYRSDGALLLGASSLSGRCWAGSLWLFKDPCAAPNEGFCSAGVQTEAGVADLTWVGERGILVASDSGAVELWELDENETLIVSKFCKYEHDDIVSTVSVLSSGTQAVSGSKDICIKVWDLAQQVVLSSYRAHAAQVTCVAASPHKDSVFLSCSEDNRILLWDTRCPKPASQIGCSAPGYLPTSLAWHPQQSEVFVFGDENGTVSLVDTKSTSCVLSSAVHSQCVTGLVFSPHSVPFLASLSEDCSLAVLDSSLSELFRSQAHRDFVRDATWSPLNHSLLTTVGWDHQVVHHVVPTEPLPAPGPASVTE
Method: (§4) In the scintillation proximity assay (SPA), specific amounts of enzyme and biotinylated peptide substrate were mixed with the compound and the reaction was initiated by adding SAM. IC50 values were measured at the apparent Km concentrations of the substrate and SAM. The reaction was quenched by adding an equal volume of 7.5 M guanidine hydrochloride, and the reaction product was measured by SPA using FlashPlate Plus and TopCount NXT HTS plate reader (both from Perkin Elmer Life Sciences).
(§5) The selectivity assay was performed as previously described [31]. The effect of test compounds on the methyltransferase activities of Euchromatic histone-lysine N-methyltransferase 2 (G9a), G9a-like protein (GLP), Suppressor of variegation 3-9 homolog (SUV39H)1, SUV39H2, SUV420H1, SUV420H2, SET domain (SETD)2, SETD8, SETD bifurcated 1 (SETDB1), SETD7, Mixed-lineage leukemia (MLL)1 trimeric complex, MLL3 pentameric complex, Enhancer of zeste homolog (EZH)2 trimeric complex, PRMT1, PRMT3, PRMT4, PRMT5/Methylosome protein (MEP)50 complex, PRMT6, PRMT7, PRMT8, PRMT9, PR domain zinc finger protein (PRDM)9, SET and MYND domain-containing (SMYD)2, SMYD3, and DNA methyltransferase (DNMT)1 was assessed by monitoring the incorporation of a tritium-labeled methyl group into substrates with the scintillation proximity assay [32]. […]

PRMT4 [3] = molecular target: T2, PRMT4 (Homo sapiens, UniProt Q86X55); assay: Differential static light scattering (DSLS) binding; settings: at 80 μM
T2 sequence (Q86X55 1-608): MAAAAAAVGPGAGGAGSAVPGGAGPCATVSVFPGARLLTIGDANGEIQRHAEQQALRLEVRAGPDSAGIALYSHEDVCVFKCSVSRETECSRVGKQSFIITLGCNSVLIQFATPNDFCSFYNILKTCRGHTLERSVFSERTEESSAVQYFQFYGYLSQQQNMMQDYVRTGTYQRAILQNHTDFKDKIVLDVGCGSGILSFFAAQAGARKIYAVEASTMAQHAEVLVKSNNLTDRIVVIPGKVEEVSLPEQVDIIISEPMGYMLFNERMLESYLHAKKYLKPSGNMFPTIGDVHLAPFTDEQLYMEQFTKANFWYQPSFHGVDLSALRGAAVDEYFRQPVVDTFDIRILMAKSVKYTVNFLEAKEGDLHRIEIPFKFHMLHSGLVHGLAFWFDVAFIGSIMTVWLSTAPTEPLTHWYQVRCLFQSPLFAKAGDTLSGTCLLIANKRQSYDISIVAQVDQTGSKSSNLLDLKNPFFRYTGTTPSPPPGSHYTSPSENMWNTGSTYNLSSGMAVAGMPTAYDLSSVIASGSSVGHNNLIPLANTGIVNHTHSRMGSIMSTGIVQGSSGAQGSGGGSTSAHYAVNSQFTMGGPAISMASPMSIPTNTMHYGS
Method: DSLS was performed as previously described [34] using 100 mM HEPES (pH 7.5), 150 mM NaCl, 3% DMSO, and 0.4 mg ml^−1 (6 μM) protein in a 10-μl reaction volume.

[4] = system: BAF155 dimethylation in U266B1 cells; assay: BAF155 dimethylation in MM cells, western blotting; assay type: cell-based, human
Method: (§6) The lysates were separated by SDS-polyacrylamide gel electrophoresis and transferred to a nitrocellulose membrane using an iBlot Transfer Stack and iBlot Gel Transfer Device (Thermo Fisher Scientific, Waltham, MA, USA). […] The membrane was incubated with ImmunoStar LD (Wako Pure Chemical Industries, Osaka, Japan), and signals were detected with an ImageQuant LAS-3000 imaging system (Fujifilm, Tokyo, Japan).

[5] = system: dimethylation of MED12 (PRMT4 substrate); assay: MED12 dimethylation in HEK293 cells, western blotting; assay type: cell-based, human; settings: 3 days
Method: (§7) Graphs represent nonlinear curve fits of dimethyl-BAF155 and dimethyl-MED12 signal intensities normalized to total BAF155 or MED12, respectively. Data represent mean ± SEM of two independent experiments prepared in triplicate.
(§8) After incubation for 3 min at room temperature, sodium dodecyl sulfate (SDS) was added to a final concentration of 1%. […] Blots were blocked for 1 h in blocking buffer composed of 5% milk and 0.1% Tween 20 in phosphate-buffered saline (PBS) and then incubated overnight at 4°C in blocking buffer containing primary antibodies against MED12 (1:1000) (Abnova, Taipei, Taiwan; H00009968-A01), MED12 with asymmetrically dimethylated arginine (1:1000; gift from Dr. Mark Bedford and Cell Signaling Technology, Danvers, MA, USA), BAF155 (1:500) (Santa Cruz Biotechnology, Santa Cruz, CA, USA; sc32763), or R1064-dimethylated BAF155 (1:2000) (Millipore; ABE1339). […] The signal was detected on an Odyssey scanner (LI-COR Biosciences) at 800 and 700 nm.

[6] = system: BAF155 dimethylation in KMS-27 cells; assay: BAF155 dimethylation in MM cells, western blotting; assay type: cell-based, human
Method: as §6

PRMT9 = molecular target: T3, PRMT9 (Homo sapiens, UniProt Q6P2P2); assay: PRMT9 methyltransferase scintillation proximity assay; assay type: biochemical
T3 construct: 1–845; made in house
T3 sequence (Q6P2P2 whole entry): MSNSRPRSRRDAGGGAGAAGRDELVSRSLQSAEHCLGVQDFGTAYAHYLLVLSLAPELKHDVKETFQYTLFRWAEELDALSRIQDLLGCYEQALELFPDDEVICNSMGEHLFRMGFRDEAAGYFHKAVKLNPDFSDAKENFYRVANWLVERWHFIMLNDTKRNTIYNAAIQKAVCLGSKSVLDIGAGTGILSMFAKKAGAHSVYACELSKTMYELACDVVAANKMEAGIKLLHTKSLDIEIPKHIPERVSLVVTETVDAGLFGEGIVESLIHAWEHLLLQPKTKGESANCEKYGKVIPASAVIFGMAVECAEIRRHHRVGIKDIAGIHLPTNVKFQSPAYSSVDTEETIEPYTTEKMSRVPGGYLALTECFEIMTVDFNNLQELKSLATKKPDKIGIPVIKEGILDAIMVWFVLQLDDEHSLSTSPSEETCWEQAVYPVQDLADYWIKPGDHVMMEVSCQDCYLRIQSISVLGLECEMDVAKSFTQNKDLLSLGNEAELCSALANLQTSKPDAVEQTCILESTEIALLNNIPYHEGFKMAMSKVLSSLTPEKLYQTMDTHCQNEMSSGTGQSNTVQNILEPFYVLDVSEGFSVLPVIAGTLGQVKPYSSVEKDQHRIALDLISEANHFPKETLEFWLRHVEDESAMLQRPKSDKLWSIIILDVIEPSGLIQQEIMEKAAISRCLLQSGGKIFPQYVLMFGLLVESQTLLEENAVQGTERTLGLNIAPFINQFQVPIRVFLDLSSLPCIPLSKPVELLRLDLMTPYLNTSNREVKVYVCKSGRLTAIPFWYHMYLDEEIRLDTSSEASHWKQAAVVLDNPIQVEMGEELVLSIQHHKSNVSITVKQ
Method: as §4

PRMT8 = molecular target: T4, PRMT8 (Homo sapiens, UniProt Q9NR22); assay: PRMT8 methyltransferase scintillation proximity assay; assay type: biochemical
T4 construct: 1–394; made in house
T4 sequence (Q9NR22 whole entry): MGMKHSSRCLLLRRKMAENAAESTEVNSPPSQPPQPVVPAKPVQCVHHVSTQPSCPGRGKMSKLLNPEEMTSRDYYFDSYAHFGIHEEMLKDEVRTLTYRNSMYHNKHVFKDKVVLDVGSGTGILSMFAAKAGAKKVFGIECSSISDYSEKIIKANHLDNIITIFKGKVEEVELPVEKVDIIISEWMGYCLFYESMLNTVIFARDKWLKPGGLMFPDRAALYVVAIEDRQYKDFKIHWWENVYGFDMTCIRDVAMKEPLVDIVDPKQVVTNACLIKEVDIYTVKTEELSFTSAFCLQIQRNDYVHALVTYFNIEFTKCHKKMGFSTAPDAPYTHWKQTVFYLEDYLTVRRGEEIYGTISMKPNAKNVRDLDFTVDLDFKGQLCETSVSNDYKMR
Method: as §4, §5

[7] = system: dimethylation of BAF155 (PRMT4 substrate); assay: BAF155 dimethylation in HEK293 cells, western blotting; assay type: cell-based, human; settings: 3 days
Method: as §7, §8

PRMT4 [8] = molecular target: T2, PRMT4; assay: Substrate competition assay (mechanism of action); assay type: biochemical; design: 1–608; made in house; settings: versus SAM and substrate peptide
Method: The substrate competition assays were performed by measuring IC50 values at various concentrations of one substrate (e.g., peptide) and at saturating concentrations of the other (e.g., SAM) and vice versa, as previously described.

[9] = system: BAF155 dimethylation in NCI-H929 cells; assay: BAF155 dimethylation in MM cells, western blotting; assay type: cell-based, human
Method: as §6

PRMT7 = molecular target: T5, PRMT7 (Homo sapiens, UniProt Q9NVM4); assay: PRMT7 methyltransferase scintillation proximity assay; assay type: biochemical
T5 construct: 1–692; made in house
T5 sequence (Q9NVM4 whole entry): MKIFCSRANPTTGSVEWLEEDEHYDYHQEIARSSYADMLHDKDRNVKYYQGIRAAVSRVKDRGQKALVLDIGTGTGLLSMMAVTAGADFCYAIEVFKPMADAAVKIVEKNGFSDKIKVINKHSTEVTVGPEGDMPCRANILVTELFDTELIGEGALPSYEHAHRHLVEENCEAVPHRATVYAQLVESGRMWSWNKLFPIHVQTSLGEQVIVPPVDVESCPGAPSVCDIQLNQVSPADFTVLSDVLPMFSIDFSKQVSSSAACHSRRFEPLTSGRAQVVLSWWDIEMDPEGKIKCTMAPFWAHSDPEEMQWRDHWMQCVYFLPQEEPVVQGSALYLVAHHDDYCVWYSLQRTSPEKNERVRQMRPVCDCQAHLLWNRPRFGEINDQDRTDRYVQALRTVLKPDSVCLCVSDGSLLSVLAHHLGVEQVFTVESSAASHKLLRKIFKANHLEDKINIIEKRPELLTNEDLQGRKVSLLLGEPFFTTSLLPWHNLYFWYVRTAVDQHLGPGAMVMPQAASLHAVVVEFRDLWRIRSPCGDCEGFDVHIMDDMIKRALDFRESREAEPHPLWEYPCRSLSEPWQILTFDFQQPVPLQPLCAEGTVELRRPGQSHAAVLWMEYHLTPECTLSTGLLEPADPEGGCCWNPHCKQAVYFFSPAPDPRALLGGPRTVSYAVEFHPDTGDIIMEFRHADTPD
Method: as §4, §5

[10] = system: 24 protein lysine methyltransferases and DNA methyltransferases; assay: Selectivity assay against other methyltransferases; assay type: biochemical; settings: for inhibition of other methyltransferases: tested at 1 and 10 μM
Method: The selectivity assay was performed as previously described [31]. The effect of test compounds on the methyltransferase activities of Euchromatic histone-lysine N-methyltransferase 2 (G9a), G9a-like protein (GLP), Suppressor of variegation 3-9 homolog (SUV39H)1, SUV39H2, SUV420H1, SUV420H2, SET domain (SETD)2, SETD8, SETD bifurcated 1 (SETDB1), SETD7, Mixed-lineage leukemia (MLL)1 trimeric complex, MLL3 pentameric complex, Enhancer of zeste homolog (EZH)2 trimeric complex, PRMT1, PRMT3, PRMT4, PRMT5/Methylosome protein (MEP)50 complex, PRMT6, PRMT7, PRMT8, PRMT9, PR domain zinc finger protein (PRDM)9, SET and MYND domain-containing (SMYD)2, SMYD3, and DNA methyltransferase (DNMT)1 was assessed by monitoring the incorporation of a tritium-labeled methyl group into substrates with the scintillation proximity assay [32]. Briefly, a 10-μl reaction containing ^3H-SAM and substrate at concentrations close to the apparent Km values for each enzyme was prepared. Two concentrations (1 and 10 μM) of compound were tested. The reactions were quenched with 10 μl of 7.5 M guanidine hydrochloride; 180 μl of 20 mM Tris buffer (pH 8.0) were added, and the mixture was transferred to a 96-well FlashPlate followed by incubation for 1 h. The counts per minute (CPM) was measured on a TopCount plate reader; the CPM in the absence of compound or enzyme was defined as 100% activity and background (0%), respectively, for each dataset.

PRMT3 = molecular target: T6, PRMT3 (Homo sapiens, UniProt O60678); assay: PRMT3 methyltransferase scintillation proximity assay; assay type: biochemical
T6 construct: 106–426 (within the); made in house
T6 sequence (O60678 211-531 limits assumed): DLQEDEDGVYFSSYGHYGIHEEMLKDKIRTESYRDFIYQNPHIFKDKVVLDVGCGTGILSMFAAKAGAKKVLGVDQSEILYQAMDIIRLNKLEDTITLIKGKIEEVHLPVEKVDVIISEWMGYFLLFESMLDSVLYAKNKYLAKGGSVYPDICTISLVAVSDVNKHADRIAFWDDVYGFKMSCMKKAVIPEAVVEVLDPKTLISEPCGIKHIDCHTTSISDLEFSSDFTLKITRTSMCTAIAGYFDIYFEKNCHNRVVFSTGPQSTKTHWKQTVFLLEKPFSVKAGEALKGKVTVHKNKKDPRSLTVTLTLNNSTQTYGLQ
Method: as §4, §5

NCI-H929 cells = assay: Cell cycle analysis by flow cytometry (DNA content); assay type: cell-based, human; settings: for G1 cell fraction / G2-M cell fraction / S cell fraction / sub-G1 cell fraction: NCI-H929, 1 μM, 72 h
Method: To measure DNA content for cell cycle distribution analysis, cells were incubated with 70% ethanol/PBS (v/v) overnight. Fixed cells were stained with propidium iodide and analyzed on a FACS LSRFortessa system (BD Biosciences, Franklin Lakes, NJ, USA).

PRMT6 = molecular target: T7, PRMT6 (Homo sapiens, UniProt Q96LA8); assay: PRMT6 methyltransferase scintillation proximity assay; assay type: biochemical
T7 construct: 1–375; made in house
T7 sequence (Q96LA8 whole entry): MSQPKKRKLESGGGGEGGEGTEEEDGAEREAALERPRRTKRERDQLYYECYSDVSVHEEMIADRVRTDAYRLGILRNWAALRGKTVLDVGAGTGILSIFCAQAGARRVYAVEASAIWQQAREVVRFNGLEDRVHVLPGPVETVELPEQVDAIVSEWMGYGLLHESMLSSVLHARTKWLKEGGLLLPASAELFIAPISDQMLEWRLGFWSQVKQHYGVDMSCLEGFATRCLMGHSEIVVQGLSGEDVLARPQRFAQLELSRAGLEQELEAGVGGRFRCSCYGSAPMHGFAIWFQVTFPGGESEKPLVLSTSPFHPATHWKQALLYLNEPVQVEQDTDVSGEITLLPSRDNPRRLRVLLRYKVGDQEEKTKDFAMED
Method: as §4, §5

KMS-11 cells = assay: MM cell growth, CellTiter-Glo, 6 days; assay type: cell-based, human; settings: KMS-11, 6 days
Method: (§3) Red dots indicate MM cell lines. […] Data are presented as mean ± standard deviation (n = 3). IC50 values were calculated by nonlinear regression analysis of % inhibition. […] ATP concentration was calculated based on chemiluminescence values relative to the 0 nM value (control) in each cell line. PRMT4 mRNA expression levels in MM cells were determined with the Ion Ampliseq transcriptome assay and were normalized to that of glyceraldehyde 3-phosphate dehydrogenase (GAPDH) in each cell line.
as §1

KMS-12PE cells = assay: MM cell growth, CellTiter-Glo, 6 days; assay type: cell-based, human
Method: as §3, §1

U266B1 cells = assay: MM cell growth, CellTiter-Glo, 6 days; assay type: cell-based, human; settings: U266B1, 6 days
Method: as §3, §1

KMS-20 cells = assay: MM cell growth, CellTiter-Glo, 6 days; assay type: cell-based, human; settings: KMS-20, 6 days
Method: as §3, §1

KMS-26 cells = assay: MM cell growth, CellTiter-Glo, 6 days; assay type: cell-based, human; settings: KMS-26, 6 days
Method: as §3, §1

MM.1S cells = assay: MM cell growth, CellTiter-Glo, 6 days; assay type: cell-based, human
Method: as §3, §1

MM.1R cells = assay: MM cell growth, CellTiter-Glo, 6 days; assay type: cell-based, human
Method: as §3, §1

KMS-28BM cells = assay: MM cell growth, CellTiter-Glo, 6 days; assay type: cell-based, human
Method: as §3, §1

KMS-27 cells = assay: MM cell growth, CellTiter-Glo, 6 days; assay type: cell-based, human; settings: KMS-27, 6 days
Method: as §3, §1

RPMI8226 cells = assay: MM cell growth, CellTiter-Glo, 6 days; assay type: cell-based, human; settings: RPMI8226, 6 days
Method: as §3, §1

KMS-12BM cells = assay: MM cell growth, CellTiter-Glo, 6 days; assay type: cell-based, human
Method: as §3, §1

K562 cells = assay: K562 cell viability, SYTOX Blue flow cytometry; assay type: cell-based; settings: 3 μM TP-064, 5 μM SGC0946, 6 days; preliminary experiments
Method: as §1
growth. […] The inhibitors were topped up after
3 days. After 6 days, cells were stained with SYTOX Blue dead cell stain and the number of viable cells was determined by flow cytometry.
Data are presented as mean ± SD (n = 5). The predicted additive effect was calculated as Fa + Fb × (1 − Fa), where Fa and Fb are the
as §2

[11] = system: panel of 89 (69 solid and 20 hematologic) cancer cell lines; assay: Cell panel viability, CellTiter-Glo, 3 days; assay type: cell-based, human; settings: 3 μM
Method: In addition, to further validate the role of PRMT4 in MM cell growth, we performed PRMT4 knockdown in NCI-H929 cells and observed PRMT4 knockdown-induced growth inhibition (Supplementary Figure 5). Thus, pharmacological inhibition of PRMT4 by small molecules may be a therapeutic option for some MM treatment.
as §3, §1

PRMT4 [12] = molecular target: T2, PRMT4; assay: PRMT4 methyltransferase scintillation proximity assay; assay type: biochemical; design: 1–608; made in house
Method: as §4

PRMT1 = molecular target: T8, PRMT1 (Homo sapiens, UniProt Q99873); assay: PRMT1 methyltransferase scintillation proximity assay; assay type: biochemical
T8 construct: 30–371; made in house
T8 sequence (Q99873 30-371): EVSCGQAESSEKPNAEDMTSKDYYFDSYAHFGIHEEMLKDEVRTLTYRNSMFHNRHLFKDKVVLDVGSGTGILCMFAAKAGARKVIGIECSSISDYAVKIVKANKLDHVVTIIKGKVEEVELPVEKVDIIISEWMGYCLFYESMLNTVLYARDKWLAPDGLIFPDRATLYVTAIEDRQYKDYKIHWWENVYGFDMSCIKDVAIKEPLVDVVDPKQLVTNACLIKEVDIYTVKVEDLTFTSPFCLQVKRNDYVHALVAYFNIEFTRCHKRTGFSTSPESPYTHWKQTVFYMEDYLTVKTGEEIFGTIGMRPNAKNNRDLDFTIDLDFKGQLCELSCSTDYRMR
Method: as §4

For `CNCCN1CCC(c2cc(CN(C)C(=O)c3cccc(Oc4ccccc4)c3)ccn2)CC1` [TP-064, N-methyl-N-((2-(1-(2-(methylamino)ethyl)piperidin-4-yl)pyridin-4-yl)methyl)-3-phenoxybenzamide], the anti-proliferative activity [1] was “did not exhibit; also recorded: no effect”, the IC50 [2] was over 10000 nM and the “increase of aggregation temperature (Tagg), DSLS” value (PRMT4 [3]) was “about 6 °C”. For the same compound, the IC50 ([4]; Homo sapiens, 72 h, U266B1, 3 days, read-out: methyl / total BAF155 IC50) was 486 nM, the IC50 ([5]; Homo sapiens, 72 h) was 43 ± 10 nM and the IC50 ([6]; Homo sapiens, 72 h, KMS-27, 3 days, read-out: methyl / total BAF155 IC50) was 400 nM. The IC50 (PRMT9) was over 10000 nM, the IC50 (PRMT8) was 8100 ± 600 nM and the IC50 ([7]; Homo sapiens, 72 h) was 340 ± 30 nM. The mode of inhibition (PRMT4 [8]) was “non-competitive”, the IC50 ([9]; Homo sapiens, 72 h, NCI-H929, 3 days, read-out: methyl / total BAF155 IC50) was 716 nM and the IC50 (PRMT7) was over 10000 nM. For the same compound, the IC50 [10] was over 10000 nM, the “inhibition of other methyltransferases” value [10] was “did not inhibit” and the IC50 (PRMT3) was over 10000 nM. It also gave a G1 cell fraction (NCI-H929 cells) of 63.5%, a G2-M cell fraction (NCI-H929 cells) of 20.2% and a S cell fraction (NCI-H929 cells) of 7.89%. The sub-G1 cell fraction (NCI-H929 cells) was 5.73%, the IC50 (PRMT6) was 1300 ± 400 nM and the “Growth at 3 μM (%)” value (KMS-11 cells) was -17.2%. The “Growth at 3 μM (%)” value (KMS-12PE cells) was -4.4%, the “Growth at 3 μM (%)” value (U266B1 cells) was -24.4% and the “Growth at 3 μM (%)” value (KMS-20 cells) was -22.5%. The “Growth at 3 μM (%)” value (KMS-26 cells) was -19.5%, the “Growth at 3 μM (%)” value (MM.1S cells) was -31.0% and the “Growth at 3 μM (%)” value (MM.1R cells) was -37.8%. The “Growth at 3 μM (%)” value (KMS-28BM cells) was -24.1%, the “Growth at 3 μM (%)” value (KMS-27 cells) was -17.2% and the IC50 (RPMI8226 cells; Homo sapiens, RPMI-8226, 144 h) was 886 nM. For the same compound, the “Growth at 3 μM (%)” value (RPMI8226 cells) was -58.3%, the “Growth at 3 μM (%)” value (KMS-12BM cells) was -8.2% and the “cytotoxic response of K562 cells” value (K562 cells) was “weak response”. For the same compound, the “growth inhibition in cancer cell panel” value [11] was “inhibited the growth of a subset of MM cell lines”.

For `COCCN1CCC(c2cc(CN(C)C(=O)c3cccc(Oc4ccccc4)c3)ccn2)CC1` [TP-064N, N-((2-(1-(2-methoxyethyl)piperidin-4-yl)pyridin-4-yl)methyl)-N-methyl-3-phenoxybenzamide], the IC50 [2] was over 10000 nM, the “effect on dimethyl-BAF155 level” value ([4]; U266B1, 72 h) was “no effect” and the “inhibition of MED12 dimethylation” value ([5]; up to 10 μM) was “did not inhibit”. The “effect on dimethyl-BAF155 level” value ([6]; KMS-27, 72 h) was “no effect”, the IC50 (PRMT9) was over 10000 nM and the IC50 (PRMT8) was over 10000 nM. The “inhibition of BAF155 dimethylation” value ([7]; up to 10 μM) was “did not inhibit”, the “effect on dimethyl-BAF155 level” value ([9]; NCI-H929, 72 h) was “no effect” and the IC50 (PRMT7) was over 10000 nM. The IC50 [10] was over 10000 nM, the “inhibition of other methyltransferases” value [10] was “completely inactive” and the IC50 (PRMT3) was over 10000 nM. For the same compound, the “effect on cell cycle” value (NCI-H929 cells; NCI-H929) was “no/little effect”, the G1 cell fraction (NCI-H929 cells) was 53.2% and the G2-M cell fraction (NCI-H929 cells) was 24.1%. It also gave a S cell fraction (NCI-H929 cells) of 13.2%, a sub-G1 cell fraction (NCI-H929 cells) of 5.14% and an IC50 (PRMT4 [12]) of 2500 ± 600 nM. It also gave an IC50 (PRMT6) of over 10000 nM and an IC50 (PRMT1) of over 10000 nM.
